# From patent US11780843B2, “Compounds active towards nuclear receptors” (NUEVOLUTION A/S, priority 2020, dated 2023)
# Biological target: T1, RORγ ligand-binding domain (Homo sapiens, UniProt P51449)
# T1 construct: Gal4 (galactose-responsive transcription factor); expressed in transfected cells; host or cells: HEK293, transient co-transfection
# T1 sequence (P51449 269-508 limits assumed): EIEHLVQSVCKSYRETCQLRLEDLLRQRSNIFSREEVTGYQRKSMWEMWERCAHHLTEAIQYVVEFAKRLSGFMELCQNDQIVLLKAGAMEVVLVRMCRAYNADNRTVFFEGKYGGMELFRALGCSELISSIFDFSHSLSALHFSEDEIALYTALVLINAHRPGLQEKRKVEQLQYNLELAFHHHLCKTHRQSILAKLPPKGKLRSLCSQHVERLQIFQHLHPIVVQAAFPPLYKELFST
# Experiment: RORγ Reporter Assay (Gal4)
# Type: cell-based
# Conditions: HEK293 cells, luciferase reporter, 24 h incubation, absolute IC50; read-out: IC50
# Description: The HEK293 cell line is co-transfected transiently with two plasmids, one with the RORγ ligand-binding domain fused to galactose-responsive transcription factor (Ga14), and the other with the luciferase reporter gene and Gal binding sites (UAS). This construction allows to determine the RORT activity in a cellular system through the measurement of luminescence.
# A suspension of RORγ reporter cells was dispensed into plates and cultured 2 h at 37° C. and 5% CO2. Media formulation consisted in DMEM/F-12 medium (Gibco) supplemented with 10% heat inactivated FBS (Sigma-Aldrich), non-essential aminoacids (Sigma-Aldrich), 2 mM Glutamax (Gibco) and 100 U/mL penicillin (Sigma-Aldrich). Dose-response curves with compounds were prepared in 100% DMSO and further diluted 100-fold in culture medium. Compound solutions were added to the plate containing cells (final DMSO concentration of 0.1%) and incubated for 24 h at 37° C. and 5% CO2. Luciferase detection reagent was added to each well, and relative light units (RLUs) were quantified from each assay well using a plate reading luminometer.
# Values of average RLU±S.D. were computed for all treatment sets, followed by the calculations of percent-reduction of RORT activity in response to respective test compound. The following formula was used: activity=100*[1−[[…]] where the theoretical minimum reduction (0% reduction). […] These calculations were performed in excel-fit software using X-204 model curve.
row,SMILES,IC50 [nM]
1,"CCN(Cc1ccc(C(F)(F)F)cc1F)c1ncnc2c1ccn2C[C@@]1(O)CCN(CC(N)=O)C[C@@H]1O (racemic) [Example L5-3-1, rac-2-((3R,4R)-4-((4-(ethyl(2-fluoro-4-(trifluoromethyl)benzyl)amino)-7H-pyrrolo[2,3-d]pyrimidin-7-yl)methyl)-3,4-dihydroxypiperidin-1-yl)acetamide]",63
2,"NC(=O)CN1CC[C@@H](Cn2cc(F)c3c(N(Cc4cnc(C(F)(F)F)nc4)C4CC4)ncnc32)[C@H](O)C1 (racemic) [Example P6-17, rac-2-((3R,4R)-4-((4-(cyclopropyl((2-(trifluoromethyl)pyrimidin-5-yl)methyl)amino)-5-fluoro-7H-pyrrolo[2,3-d]pyrimidin-7-yl)methyl)-3-hydroxypiperidin-1-yl)acetamide]",43
3,"NC(=O)CN1CC[C@@H](Cn2cnc3c(N(Cc4cccc(C(F)(F)F)c4)C4CC4)ncnc32)[C@H](O)C1 (racemic) [Example P6-20, rac-2-((3R,4R)-4-((6-(cyclopropyl(3-(trifluoromethyl)benzyl)amino)-9H-purin-9-yl)methyl)-3-hydroxypiperidin-1-yl)acetamide]",> 1000
4,"CC(C)N(Cc1ccc(C(F)(F)F)cc1)c1ncnc2c1ncn2C[C@@H]1CCN(CC(N)=O)C[C@H]1O (racemic) [Example P6-22, rac-2-((3R,4R)-3-hydroxy-4-((6-(isopropyl(4-(trifluoromethyl)benzyl)amino)-9H-purin-9-yl)methyl)piperidin-1-yl)acetamide]",77
5,"CCN(Cc1ccc(C#N)cc1)c1ncnc2c1ccn2C[C@@H]1CCN(CC(N)=O)C[C@H]1O (relative stereo) [P6-29″, rel-2-((3R,4R)-4-((4-((4-cyanobenzyl)(ethyl)amino)-7H-pyrrolo[2,3-d]pyrimidin-7-yl)methyl)-3-hydroxypiperidin-1-yl)acetamide]",> 1000
6,"CCN(Cc1ccc(-c2cnn(C)c2)cc1)c1ncnc2c1ccn2C[C@@H]1CCN(CC(N)=O)C[C@H]1O (relative stereo) [P6-34″, rel-2-((3R,4R)-4-((4-(ethyl(4-(1-methyl-1H-pyrazol-4-yl)benzyl)amino)-7H-pyrrolo[2,3-d]pyrimidin-7-yl)methyl)-3-hydroxypiperidin-1-yl)acetamide]",12
7,"CCN(Cc1ccc(-c2cnn(C)c2)cc1F)c1ncnc2c1ccn2C[C@@H]1CCN(CC(N)=O)C[C@H]1O (relative stereo) [P6-35″, rel-2-((3R,4R)-4-((4-(ethyl(2-fluoro-4-(1-methyl-1H-pyrazol-4-yl)benzyl)amino)-7H-pyrrolo[2,3-d]pyrimidin-7-yl)methyl)-3-hydroxypiperidin-1-yl)acetamide]",24
8,"CCN(Cc1ccc(-n2cccn2)cc1F)c1ncnc2c1ccn2C[C@@H]1CCN(CC(N)=O)C[C@H]1O (relative stereo) [P6-36″, rel-2-((3R,4R)-4-((4-(ethyl(2-fluoro-4-(1H-pyrazol-1-yl)benzyl)amino)-7H-pyrrolo[2,3-d]pyrimidin-7-yl)methyl)-3-hydroxypiperidin-1-yl)acetamide]",14
9,"CCN(Cc1ccc(-n2cccn2)cc1F)c1ncnc2c1ccn2C[C@@]1(O)CCN(CC(N)=O)C[C@@H]1O (relative stereo) [R5-5″, Rel-2-((3R,4R)-4-((4-(ethyl(2-fluoro-4-(1H-pyrazol-1-yl)benzyl)amino)-7H-pyrrolo[2,3-d]pyrimidin-7-yl)methyl)-3,4-dihydroxypiperidin-1-yl)acetamide]",15
10,"NC(=O)CN1CCC(Cn2ccc3c(N(Cc4ccc(C(F)(F)F)cc4)C4CC4)ncnc32)C(F)(F)C1 (single isomer, unassigned) [Example K8-1-1]",9
11,"NC(=O)CN1CCC(Cn2ccc3c(N(Cc4ccc(C(F)(F)F)cc4)C4CC4)ncnc32)C(F)(F)C1 (single isomer, unassigned) [Example K8-1-2]",4
12,"NC(=O)CN1CC[C@@H](Cn2ccc3c(N(Cc4ccc(C(F)(F)F)cc4)C4CC4)ncnc32)[C@H](F)C1 (single isomer, unassigned) [Example K8-2-1]",6.1
13,"NC(=O)CN1CC[C@@H](Cn2ccc3c(N(Cc4ccc(C(F)(F)F)cc4)C4CC4)ncnc32)[C@H](F)C1 (single isomer, unassigned) [Example K8-2-2]",3.1
14,"NC(=O)CN1CC[C@@H](Cn2ccc3c(N(Cc4ccc(C(F)(F)F)cn4)C4CC4)ncnc32)[C@H](F)C1 (single isomer, unassigned) [Example K8-3-1]",76
15,"NC(=O)CN1CC[C@@H](Cn2ccc3c(N(Cc4ccc(C(F)(F)F)cn4)C4CC4)ncnc32)[C@H](F)C1 (single isomer, unassigned) [Example K8-3-2]",22
16,"NC(=O)CN1CC[C@@H](Cn2ccc3c(N4CCOC[C@@H]4c4ccc(C(F)(F)F)cc4)ncnc32)[C@H](O)C1 (single isomer, unassigned) [Example P6-01-1, 2-((3R*,4R*)-3-hydroxy-4-((4-((S)-3-(4-(trifluoromethyl)phenyl)morpholino)-7H-pyrrolo[2,3-d]pyrimidin-7-yl)methyl)piperidin-1-yl)acetamide]",12
17,"NC(=O)CN1CC[C@@H](Cn2ccc3c(N4CCOC[C@@H]4c4ccc(C(F)(F)F)cc4)ncnc32)[C@H](O)C1 (single isomer, unassigned) [Example P6-01-2, 2-((3R*,4R*)-3-hydroxy-4-((4-((S)-3-(4-(trifluoromethyl)phenyl)morpholino)-7H-pyrrolo[2,3-d]pyrimidin-7-yl)methyl)piperidin-1-yl)acetamide]",25
18,"NC(=O)CN1CC[C@@H](Cn2ccc3c(N4CCOC[C@@H]4c4cccc(C(F)(F)F)c4)ncnc32)[C@H](O)C1 (single isomer, unassigned) [Example P6-03-1]",13
19,"NC(=O)CN1CC[C@@H](Cn2ccc3c(N4CCOC[C@@H]4c4cccc(C(F)(F)F)c4)ncnc32)[C@H](O)C1 (single isomer, unassigned) [Example P6-03-2]",26
20,"NC(=O)CN1CC[C@@H](Cn2ccc3c(N4CCOC[C@H]4c4cccc(C(F)(F)F)c4)ncnc32)[C@H](O)C1 (single isomer, unassigned) [Example P6-04-1]",47
21,"NC(=O)CN1CC[C@@H](Cn2cnc3c(N(Cc4ccc(C(F)(F)F)cc4)C4CC4)ncnc32)[C@H](O)C1 (single isomer, unassigned) [Example P6-26-1]",65
22,"NC(=O)CN1CC[C@@H](Cn2ccc3c(N4CCOC[C@@H]4c4ccc(C(F)(F)F)cn4)ncnc32)[C@H](F)C1 (single isomer, unassigned) [Example Q4-1-1, 2-((3R*,4R*)-3-fluoro-4-((4-((S)-3-(5-(trifluoromethyl)pyridin-2-yl)morpholino)-7H-pyrrolo[2,3-d]pyrimidin-7-yl)methyl)piperidin-1-yl)acetamide]",170
23,"NC(=O)CN1CC[C@@H](Cn2ccc3c(N4CCOC[C@@H]4c4ccc(C(F)(F)F)cn4)ncnc32)[C@H](F)C1 (single isomer, unassigned) [Example Q4-1-2, 2-((3R*,4R*)-3-fluoro-4-((4-((S)-3-(5-(trifluoromethyl)pyridin-2-yl)morpholino)-7H-pyrrolo[2,3-d]pyrimidin-7-yl)methyl)piperidin-1-yl)acetamide]",250
24,"NC(=O)CN1CCC(O)(Cn2cnc3c(N(Cc4ccc(C(F)(F)F)cc4)C4CC4)ncnc32)CC1 [Example 3P6-3, 2-(4-((6-(cyclopropyl(4-(trifluoromethyl)benzyl)amino)-9H-purin-9-yl)methyl)-4-hydroxypiperidin-1-yl)acetamide]",72
25,"N#Cc1cn(CC2(O)CCN(CC(N)=O)CC2)c2ncnc(N(Cc3ccc(C(F)(F)F)cc3)C3CC3)c12 [Example 3P6-4, 2-(4-((5-cyano-4-(cyclopropyl(4-(trifluoromethyl)benzyl)amino)-7H-pyrrolo[2,3-d]pyrimidin-7-yl)methyl)-4-hydroxypiperidin-1-yl)acetamide]",297
26,"CN(Cc1ccc(C(F)(F)F)cc1)c1ncnc2c1c(F)cn2CC1(O)CCN(CC(N)=O)CC1 [Example 3P6-5, 2-(4-((5-fluoro-4-(methyl(4-(trifluoromethyl)benzyl)amino)-7H-pyrrolo[2,3-d]pyrimidin-7-yl)methyl)-4-hydroxypiperidin-1-yl)acetamide]",87

# Same assay, conditions: Table 5 b; bound estimated from % inhibition at 0.1 and/or 1 uM; read-out: RORγ Gal4 assay (based on % inhibition at 0.1 and/or 1 uM) IC50
row,SMILES,IC50 [nM]
1,"NC(=O)Cc1ccc(Cn2ccc3c(N4CCOC[C@@H]4c4ccc(C(F)(F)F)cn4)ncnc32)cc1 [Example 328, reference compound]",< 100
2,"NC(=O)Cc1ccc(Cn2ccc3c(N(Cc4ccc(C(F)(F)F)cc4)C4CC4)ncnc32)cc1 [Example I1, reference compound]",< 100

# Same assay, conditions: stated as a bound only (Tables 5 a, 6, 7); read-out: Gal4 assay IC50
row,SMILES,IC50 [nM]
1,"NC(=O)CN1CC[C@@H](Cn2ccc3c(N4CCOC[C@@H]4c4ccc(C(F)(F)F)cn4)ncnc32)[C@H](F)C1 (single isomer, unassigned) [Example Q4-1-1, 2-((3R*,4R*)-3-fluoro-4-((4-((S)-3-(5-(trifluoromethyl)pyridin-2-yl)morpholino)-7H-pyrrolo[2,3-d]pyrimidin-7-yl)methyl)piperidin-1-yl)acetamide]",< 500
2,"NC(=O)Cc1ccc(Cn2ccc3c(N4CCOC[C@@H]4c4ccc(C(F)(F)F)cn4)ncnc32)cc1 [Example 328, reference compound]",< 100
3,"NC(=O)Cc1ccc(Cn2ccc3c(N(Cc4ccc(C(F)(F)F)cc4)C4CC4)ncnc32)cc1 [Example I1, reference compound]",< 100
